Assay results from patent US9834558B2, “Substituted bridged urea analogs as sirtuin modulators” (GLAXOSMITHKLINE LLC, priority 2013, dated 2017).

Biological target: T1, SIRT1 (Homo sapiens, UniProt Q96EB6)
T1 sequence (Q96EB6 1-747): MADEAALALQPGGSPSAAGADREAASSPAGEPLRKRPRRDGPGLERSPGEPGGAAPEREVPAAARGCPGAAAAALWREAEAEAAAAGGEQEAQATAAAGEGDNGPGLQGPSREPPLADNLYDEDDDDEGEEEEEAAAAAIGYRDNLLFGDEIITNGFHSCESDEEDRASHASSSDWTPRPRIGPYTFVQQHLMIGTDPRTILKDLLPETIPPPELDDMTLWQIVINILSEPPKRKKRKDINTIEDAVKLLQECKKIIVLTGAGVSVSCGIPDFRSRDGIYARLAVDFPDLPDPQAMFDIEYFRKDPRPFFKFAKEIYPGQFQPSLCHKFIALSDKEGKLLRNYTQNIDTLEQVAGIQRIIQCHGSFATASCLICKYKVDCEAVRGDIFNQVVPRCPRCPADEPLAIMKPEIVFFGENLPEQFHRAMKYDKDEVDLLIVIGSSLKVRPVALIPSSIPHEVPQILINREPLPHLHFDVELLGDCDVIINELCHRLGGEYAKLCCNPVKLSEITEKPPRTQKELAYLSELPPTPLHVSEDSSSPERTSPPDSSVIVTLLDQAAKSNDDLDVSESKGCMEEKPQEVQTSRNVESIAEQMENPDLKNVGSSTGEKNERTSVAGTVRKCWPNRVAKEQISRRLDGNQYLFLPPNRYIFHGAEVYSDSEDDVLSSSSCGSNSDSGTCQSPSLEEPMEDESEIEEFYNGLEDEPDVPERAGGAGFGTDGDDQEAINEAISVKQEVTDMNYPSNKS
Experiment: Trp mass spectrometry assay of SIRT1 activation
Assay type: biochemical
Settings: for TRP Activity (EC1.5): EC1.5 = concentration that results in 150% activation of SIRT1; for Emax: read-out: TRP MAX RESP (percent maximum fold activation)
How it was run: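 Activation read-out: mass-spec measurement of O-acetyl-ADP-ribose or deacetylated Trp peptide versus compound-free controls, giving EC1.5 and Percent Maximum Activation. Reactions ran 25 min at 25 °C, pH 7.5, with 120 μM βNAD+, 0.5 μM acetylated p53-derived peptide and 10 nM His-tagged SIRT1.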

[1] = Trp peptide assay, maximum activity relative to control (100%)
[2] = concentration giving 150% activation of SIRT1, Trp peptide substrate
[3] = Trp mass spectrometry assay, EC1.5 = concentration of test compound that results in 150% activation of SIRT1
[4] = Trp mass spectrometry assay, concentration of test compound giving 150% activation of SIRT1

## O=C(NC1CCC1)c1ccc2c(n1)N(C(=O)Nc1ccccn1)[C@H]1CCN2C1 [(9S)-5-N-cyclobutyl-8-N-(pyridin-2-yl)-1,6,8-triazatricyclo[7.2.1.0^{2,7}]dodeca-2(7),3,5-triene-5,8-dicarboxamide]
Trp peptide assay
  TRP Activity (EC1.5): A (A (EC1.5<1 μM))
[1]
  Emax: > 150%

## CC(C)(C)OC(=O)NCC#Cc1ccc(NC(=O)N2c3nc(-c4cccc(C(F)(F)F)c4)ccc3N3CCC[C@H]2C3)cc1-c1cnco1 [Example 753]
[2]
  Tryp AVG EC1.5 (μM): A (A (EC1.5<1 μM))

## Cc1ccncc1-c1ccc2c(n1)N(C(=O)Nc1nc(C)c(C)s1)[C@H]1CCCN2C1 [Example 508]
[3]
  Tryp AVG EC1.5 (μM): C (C (EC1.5>25 μM))

## O=C(Nc1cccc(-c2cnco2)c1)N1c2nc(-c3cncc(Cl)c3)ccc2N2CCC1CC2 [Example 575]
[3]
  Tryp AVG EC1.5 (μM): A (A (EC1.5<1 μM))

## CN1CCN(c2ccnc(NC(=O)N3c4nc(-c5cccc(C(F)(F)F)c5)ccc4N4CC[C@H]3C4)n2)CC1 [Example 742]
[2]
  Tryp AVG EC1.5 (μM): A (A (EC1.5<1 μM))

## Cc1ccc(-c2ccc3c(n2)N(C(=O)Nc2cccnc2)[C@H]2CCCN3C2)cn1 [Example 514]
[3]
  Tryp AVG EC1.5 (μM): B (B (EC1.5 1-25 μM))

## O=C(Nc1ccc(N2CCCCC2)cc1)N1c2nc(-c3cccc(C(F)(F)F)c3)ccc2N2CC[C@H]1C2 [Example 628]
[2]
  Tryp AVG EC1.5 (μM): B (B (EC1.5 1-25 μM))

## Cc1nc(NC(=O)N2c3nc(-c4cccnc4)ccc3N3CCC[C@H]2C3)sc1C [Example 466]
[3]
  Tryp AVG EC1.5 (μM): B (B (EC1.5 1-25 μM))

## O=C(NC1CCCOC1)c1ccc2c(n1)N(C(=O)Nc1ccccn1)[C@H]1CCN2C1 (stereo partly drawn) [(9S)-5-N-(oxan-3-yl)-8-N-(pyridin-2-yl)-1,6,8-triazatricyclo[7.2.1.0 {2,7}]dodeca-2(7),3,5-triene-5,8-dicarboxamide]
Trp peptide assay
  TRP Activity (EC1.5): B (B (EC1.5 1-25 μM))
[1]
  Emax: > 150%

## CC1(CCC(=O)NCc2ccc(NC(=O)N3c4nc(-c5cccc(C(F)(F)F)c5)ccc4N4CC[C@H]3C4)cc2)N=N1 [Example 548]
[3]
  Tryp AVG EC1.5 (μM): B (B (EC1.5 1-25 μM))

## CC(C)(C)OC(=O)NCCCc1ccc(NC(=O)N2c3nc(-c4cccc(C(F)(F)F)c4)ccc3N3CCC[C@H]2C3)cc1-c1cnco1 [Example 752]
[2]
  Tryp AVG EC1.5 (μM): A (A (EC1.5<1 μM))

## C[C@H]1COCCN1c1ccc2c(n1)N(C(=O)Nc1cccnc1)[C@H]1CCN2C1 [(9S)-5-[(3S)-3-methylmorpholin-4-yl]-N-(pyridin-3-yl)-1,6,8-triazatricyclo[7.2.1.0^2,7]dodeca-2(7),3,5-triene-8-carboxamide]
Trp peptide assay
  TRP Activity (EC1.5): B (B (EC1.5 1-25 μM))
[1]
  Emax: > 150%

## Cc1nc(NC(=O)N2c3nc(-c4cncc(Cl)c4)ccc3N3CCC2CC3)sc1C [Example 554]
[3]
  Tryp AVG EC1.5 (μM): B (B (EC1.5 1-25 μM))

## O=C(Nc1cccc(-c2ccc(C(F)(F)F)cn2)c1)N1c2nc(-c3cccc(C(F)(F)F)c3)ccc2N2CC[C@H]1C2 [Example 618]
[3]
  Tryp AVG EC1.5 (μM): B (B (EC1.5 1-25 μM))

## Cc1cncc(-c2ccc3c(n2)N(C(=O)Nc2ccccn2)[C@H]2CCCN3C2)c1 [Example 504]
[3]
  Tryp AVG EC1.5 (μM): A (A (EC1.5<1 μM))

## O=C(Nc1cccc(C2(C(F)(F)F)N=N2)c1)N1c2nc(-c3cccc(C(F)(F)F)c3)ccc2N2CCC[C@H]1C2 [Example 335]
[4]
  Tryp AVG EC1.5 (μM): A (A (EC1.5<1 μM))

## O=C(Nc1ccccn1)N1c2nc(-c3cccc(CC(O)CO)c3)ccc2N2CC[C@H]1C2 (stereo partly drawn) [Example 354]
[4]
  Tryp AVG EC1.5 (μM): A (A (EC1.5<1 μM))

## COc1cncc(NC(=O)N2c3nc(-c4ccnc(C)c4)ccc3N3CCC[C@H]2C3)n1 [(9S)-N-(6-methoxypyrazin-2-yl)-5-(2-methylpyridin-4-yl)-1,6,8-triazatricyclo[7.3.1.0 {2,7}]trideca-2(7),3,5-triene-8-carboxamide]
Trp peptide assay
  TRP Activity (EC1.5): A (A (EC1.5<1 μM))
[1]
  Emax: > 150%

## Cn1cc(-c2ccc3c(n2)N(C(=O)Nc2cnccn2)[C@H]2CCN3C2)ccc1=O [(9S)-5-(1-methyl-6-oxo-1,6-dihydropyridin-3-yl)-N-(pyrazin-2-yl)-1,6,8-triazatricyclo[7.2.1.0^2,7]dodeca-2(7),3,5-triene-8-carboxamide]
Trp peptide assay
  TRP Activity (EC1.5): C (C (EC1.5>25 μM))
[1]
  Emax: < 150%

## Cc1noc(C)c1-c1ccc2c(n1)N(C(=O)Nc1cnccn1)[C@H]1CCN2C1 [Example 413]
[4]
  Tryp AVG EC1.5 (μM): C (C (EC1.5>25 μM))

## O=C(Nc1cc(OC[C@@H](O)CO)ccn1)N1c2nc(-c3cccc(C(F)(F)F)c3)ccc2N2CC[C@H]1C2 [(9S)-N-{4-[(2S)-2,3-dihydroxypropoxy]pyridin-2-yl}-5-[3-(trifluoromethyl)phenyl]-1,6,8-triazatricyclo[7.2.1.0 {2,7}]dodeca-2(7),3,5-triene-8-carboxamide]
Trp peptide assay
  TRP Activity (EC1.5): A (A (EC1.5<1 μM))
[1]
  Emax: > 150%

## COc1cc(NC(=O)N2c3nc(-c4ccnc(N5CCC(C(F)(F)F)C5)c4)ccc3N3CC[C@H]2C3)ncn1 (stereo partly drawn) [Example 368]
[4]
  Tryp AVG EC1.5 (μM): B (B (EC1.5 1-25 μM))

## Cc1cc(-c2ccc3c(n2)N(C(=O)Nc2cnc(C(F)(F)F)cn2)[C@H]2CCN3C2)ccn1 [(9S)-5-(2-methylpyridin-4-yl)-N-[5-(trifluoromethyl)pyrazin-2-yl]-1,6,8-triazatricyclo[7.2.1.0 {2,7}]dodeca-2(7),3,5-triene-8-carboxamide]
Trp peptide assay
  TRP Activity (EC1.5): C (C (EC1.5>25 μM))
[1]
  Emax: < 150%

## O=C(Nc1cc(-c2cnco2)ccn1)N1c2nc(-c3cncc(F)c3)ccc2N2CC[C@H]1C2 [Example 727]
[2]
  Tryp AVG EC1.5 (μM): A (A (EC1.5<1 μM))

## O=C(Nc1ccccn1)N1c2nc(-c3cncc(F)c3)ccc2N2CCC[C@H]1C2 [Example 470]
[3]
  Tryp AVG EC1.5 (μM): A (A (EC1.5<1 μM))

## O=C(Nc1cncc(OC[C@H](O)CO)n1)N1c2nc(-c3cccc(C(F)(F)F)c3)ccc2N2CC[C@H]1C2 [(9S)-N-{6-[(2R)-2,3-dihydroxypropoxy]pyrazin-2-yl}-5-[3-(trifluoromethyl)phenyl]-1,6,8-triazatricyclo[7.2.1.0 {2,7}]dodeca-2(7),3,5-triene-8-carboxamide]
Trp peptide assay
  TRP Activity (EC1.5): A (A (EC1.5<1 μM))
[1]
  Emax: > 150%

## Cc1cc(-c2ccc3c(n2)N(C(=O)Nc2cccc(-c4cnco4)c2)[C@H]2CCN3C2)ccn1 [Example 480]
[3]
  Tryp AVG EC1.5 (μM): A (A (EC1.5<1 μM))

## O=C(NCCn1ccnc1)N1c2nc(-c3cccc(C(F)(F)F)c3)ccc2N2CC[C@H]1C2 [Example 661]
[2]
  Tryp AVG EC1.5 (μM): C (C (EC1.5>25 μM))

## Cc1cc(-c2ccc3c(n2)N(C(=O)Nc2ccccn2)[C@H]2CCCN3C2)ccn1 [(9S)-5-(2-methylpyridin-4-yl)-N-(pyridin-2-yl)-1,6,8-triazatricyclo[7.3.1.0 {2,7}]trideca-2(7),3,5-triene-8-carboxamide]
Trp peptide assay
  TRP Activity (EC1.5): A (A (EC1.5<1 μM))
[1]
  Emax: > 150%

## O=C(Nc1ccccn1)N1c2nc(N3CCC[C@H](C(F)(F)F)C3)ccc2N2CCC[C@H]1C2 [drawing 1118, (9S)-N-(pyridin-2-yl)-5-[(3S)-3-(trifluoromethyl)piperidin-1-yl]-1,6,8-triazatricyclo[7.3.1.0 {2,7}]trideca-2(7),3,5-triene-8-carboxamide]
Trp peptide assay
  TRP Activity (EC1.5): A (A (EC1.5<1 μM))
[1]
  TRP MAX RESP (percent maximum fold activation): A (A (Fold activation ≧150%))

## Cc1cc(-c2ccc3c(n2)N(C(=O)Nc2cc4cn[nH]c4cn2)[C@H]2CCN3C2)ccn1 [(9S)-5-(2-methylpyridin-4-yl)-N-{1H-pyrazolo[3,4-c]pyridin-5-yl}-1,6,8-triazatricyclo[7.2.1.0 {2,7}]dodeca-2(7),3,5-triene-8-carboxamide]
Trp peptide assay
  TRP Activity (EC1.5): A (A (EC1.5<1 μM))
[1]
  Emax: > 150%

## O=C(Nc1cccnn1)N1c2nc(-c3cncc(C(F)(F)F)c3)ccc2N2CCC[C@H]1C2 [Example 412]
[4]
  Tryp AVG EC1.5 (μM): A (A (EC1.5<1 μM))

## N#Cc1cccc(-c2ccc3c(n2)N(C(=O)Nc2cccnc2)[C@H]2CCCN3C2)c1 [Example 350]
[4]
  Tryp AVG EC1.5 (μM): A (A (EC1.5<1 μM))

## CS(=O)(=O)Nc1cccc(NC(=O)N2c3nc(-c4cccc(C(F)(F)F)c4)ccc3N3CC[C@H]2C3)c1 [Example 642]
[2]
  Tryp AVG EC1.5 (μM): A (A (EC1.5<1 μM))

## COc1cc(NC(=O)N2c3nc(-c4cncc(C(F)(F)F)c4)ccc3N3C[C@@H](O)[C@H]2C3)nc(OC)n1 [Example 704]
[2]
  Tryp AVG EC1.5 (μM): B (B (EC1.5 1-25 μM))

## O=C(Nc1cnccn1)N1c2nc(N3CCOCC3)ccc2N2CC[C@H]1C2 [(9S)-5-(morpholin-4-yl)-N-(pyrazin-2-yl)-1,6,8-triazatricyclo[7.2.1.0 {2,7}]dodeca-2,4,6-triene-8-carboxamide]
Trp peptide assay
  TRP Activity (EC1.5): B (B (EC1.5 1-25 μM))
[1]
  Emax: > 150%
